# Laboratory results taken from patent publication US12049463B2, “Crystalline form of Tolebrutinib” (GENZYME CORPORATION, priority 2020, dated 2024).
# Entries after “also recorded” stand apart in the source; their conditions may differ.
# Experiments:
# Format in all cases: physicochemical
# [1] = Hygroscopicity by dynamic vapor sorption (DVS); details: for Weight gain at 80% RH: 25° C.; for Hygroscopicity class: weight gain at 80% RH, Chinese Pharmacopoeia definition
# Method: Dynamic Vapor Sorption (DVS) was measured via an SMS (Surface Measurement Systems Ltd.) intrinsic DVS instrument. Typical Parameters for DVS test are as follows:
# Gas and flow rate: nitrogen, 200 mL/min
# RH range: 0% RH to 95% RH
# Certain amounts of Form CSI of the present disclosure and prior art amorphous were sampled for hygroscopicity tests using dynamic vapor sorption (DVS) instrument. The weight change at each relative humidity is recorded during the cycle of 0% RH-95% RH-0% RH at 25° C., and the experimental results are listed in Table 12. The DVS plots of Form CSI and amorphous are as depicted in FIG. 8 and FIG. 9, respectively.
# Description and definition of hygroscopicity (general notice 9103 drug hygroscopicity test guidelines in 2020 edition of Chinese Pharmacopoeia, experimental condition: 25±1° C., 80±2% RH): […]
# [2] = Physical and chemical stability of Form CSI on storage (purity by UPLC, solid form by XRPD); details: for Time for which crystalline state doesn't change (stable): open and sealed package
# Source text: X-ray powder diffraction patterns in the present disclosure were acquired by a Bruker X-ray powder diffractometer. The parameters of the X-ray powder diffraction method of the present disclosure are as follows:
# (§1) The related substance in the present disclosure was detected by UPLC and the parameters are shown below.
# Said “open packaged” is putting the sample into a glass vial, covering the vial with aluminum foil, and punching 5-10 holes on the foil.
# Said “sealed packaged” is putting the sample into a glass vial, capping the vial tightly, and sealing the vial in an aluminum foil bag.
# A certain amount of Form CSI of the present disclosure and prior art amorphous were weighed and stored under 25° C./60% RH, 40° C./75% RH and 60° C./75% RH conditions, respectively. The purity and solid form were determined by UPLC and XRPD.
# [3] = Stability at high temperature (80° C., purity by UPLC); details: for Chemical stability in words / Final purity / Purity change: 2 days; for Final purity / Purity change: glass vial with cap; for Initial purity: before storage at 80° C.
# Method: as §1
# Approximately 10 mg of Form CSI of the present disclosure and prior art amorphous were stored at 80° C. for 2 days, and the initial and final purities were determined by UPLC, as shown in Table 11.
# [4] = XRPD before and after formulation process; details: before and after the formulation process
# Method: According to the formulation and process in Table 13 and Table 14, the drug products were prepared with an appropriate amount of Form CSI of the present disclosure. XRPD were tested before and after formulation.
# [5] = 25° C./60% RH, open packaged, 6 months
# [6] = 25° C./60% RH, sealed packaged, 6 months
# [7] = 40° C./75% RH, open packaged, 6 months
# [8] = 40° C./75% RH, sealed packaged, 6 months
# [9] = 60° C./75% RH, open packaged, 1 month
# [10] = 60° C./75% RH, sealed packaged, 1 month
compound,measurement,setting,value
"C=CC(=O)N1CCC[C@@H](n2c(=O)n(-c3ccc(Oc4ccccc4)cc3)c3c(N)nccc32)C1 [Amorphous, (R)-1-(1-acryloylpiperidin-3-yl)-4-amino-3-(4-phenoxyphenyl)-1H-imidazo[4,5-c]pyridin-2(3H)-one]",Weight gain at 80% RH,"[1]; DVS, listed as Prior art solid",3.69%
same,Weight gain at 80% RH,"[1]; DVS, listed as prior art solid",3.69%
same,Hygroscopicity class,[1]; listed as prior art solid,hygroscopic
same,Impurity number exceed the qualificated threshold,[2]; [5],1
same,Purity,[2]; [5],99.57%
same,Purity change,[2]; [5],−0.23%
same,Solid form,[2]; [5],Amorphous
same,Impurity number exceed the qualificated threshold,[2]; [6],1
same,Purity,[2]; [6],99.65%
same,Purity change,[2]; [6],−0.15%
same,Solid form,[2]; [6],Amorphous
same,Purity decrease,"[2]; 40° C./75% RH, open package, 6 months",3.46%
same,Impurity number exceed the qualificated threshold,[2]; [7],4
same,Purity,[2]; [7],96.34%
same,Purity change,[2]; [7],−3.46%
same,Solid form,[2]; [7],Amorphous
same,Impurity number exceed the qualificated threshold,"[2]; 40° C./75% RH, open packaged, 6 months, listed as prior art amorphous",four
same,Impurity number exceed the qualificated threshold,"[2]; 40° C./75% RH, open packaged, 6 months, listed as prior art solid",four
same,Impurity number exceed the qualificated threshold,[2]; [8],2
same,Purity,[2]; [8],99.18%
same,Purity change,[2]; [8],−0.62%
same,Solid form,[2]; [8],Amorphous
same,Purity decrease,"[2]; 60° C./75% RH, open package, 1 month",over 6.3%
same,Impurity number exceed the qualificated threshold,[2]; [9],4
same,Purity,[2]; [9],93.48%
same,Purity change,[2]; [9],−6.32%
same,Solid form,[2]; [9],Amorphous
same,Impurity number exceed the qualificated threshold,"[2]; 60° C./75% RH, open packaged, 1 month, listed as prior art amorphous",four
same,Impurity number exceed the qualificated threshold,"[2]; 60° C./75% RH, open packaged, 1 month, listed as prior art solid",four
same,Purity decrease,"[2]; 60° C./75% RH, sealed package, 1 month",2.76%
same,Impurity number exceed the qualificated threshold,[2]; [10],2
same,Purity,[2]; [10],97.04%
same,Purity change,[2]; [10],−2.76%
same,Solid form,[2]; [10],Amorphous
same,Impurity number exceed the qualificated threshold,"[2]; 60° C./75% RH, sealed packaged, 1 month, listed as prior art amorphous",two
same,Impurity number exceed the qualificated threshold,"[2]; 60° C./75% RH, sealed packaged, 1 month, listed as prior art solid",two
same,Impurity number exceed the qualificated threshold,[2]; Initial (before storage),1
same,Purity,[2]; Initial (before storage),99.80%
same,Chemical stability in words,[3]; 80° C.,significant degradation
same,Final purity,[3]; 80° C.,98.64%
same,Purity change,[3]; 80° C.,−1.16%
same,Initial purity,[3],99.80%
"C=CC(=O)N1CCC[C@@H](n2c(=O)n(-c3ccc(Oc4ccccc4)cc3)c3c(N)nccc32)C1 [Form CSI, (R)-1-(1-acryloylpiperidin-3-yl)-4-amino-3-(4-phenoxyphenyl)-1H-imidazo[4,5-c]pyridin-2(3H)-one]",Weight gain of Form CSI relative to that of the prior art,[1]; DVS,1/7
same,Weight gain at 80% RH,[1]; DVS,0.53%
same,Hygroscopicity class,[1],slightly hygroscopic
same,Chemical purity during storage,"[2]; 25° C./60% RH, 6 months",above 99.8%
same,Time for which crystalline state doesn't change (stable),[2]; 25° C./60% RH,at least 6 months
same,Impurity number exceed the qualificated threshold,[2]; [5],0
same,Purity,[2]; [5],99.81%
same,Purity change,[2]; [5],−0.05%
same,Solid form,[2]; [5],Form CSI
same,Impurity number exceed the qualificated threshold,[2]; [6],0
same,Purity,[2]; [6],99.89%
same,Purity change,[2]; [6],0.03%
same,Solid form,[2]; [6],Form CSI
same,Chemical purity during storing,[2]; 40° C./75% RH 6 months and 60° C./75% RH 1 month,above 99.8%
same,Time for which crystalline state doesn't change (stable),[2]; 40° C./75% RH,at least 6 months
same,Impurity number exceed the qualificated threshold,[2]; [7],0
same,Purity,[2]; [7],99.81%
same,Purity change,[2]; [7],−0.05%
same,Solid form,[2]; [7],Form CSI
same,Impurity number exceed the qualificated threshold,[2]; [8],0
same,Purity,[2]; [8],99.92%
same,Purity change,[2]; [8],0.06%
same,Solid form,[2]; [8],Form CSI
same,Time for which crystalline state doesn't change,"[2]; 60° C./75% RH, open or sealed package",at least 1 month
same,Impurity number exceed the qualificated threshold,[2]; [9],0
same,Purity,[2]; [9],99.86%
same,Purity change,[2]; [9],0.00%
same,Solid form,[2]; [9],Form CSI
same,Impurity number exceed the qualificated threshold,[2]; [10],0
same,Purity,[2]; [10],99.85%
same,Purity change,[2]; [10],−0.01%
same,Solid form,[2]; [10],Form CSI
same,Impurity number exceed the qualificated threshold,[2]; Initial (before storage),0
same,Purity,[2]; Initial (before storage),99.86%
same,Impurity content versus the qualificated threshold,[2]; throughout the stability investigation processes,does not exceed the qualificated threshold; also recorded: did not exceed the qualificated threshold
same,Physical stability on formulation process (XRPD),[4],physically stable
same,Time for which chemical purity remains substantially unchanged,[3]; 80° C.,at least 2 days
same,Chemical stability in words,[3]; 80° C.,basically remains unchanged
same,Final purity,[3]; 80° C.,99.95%
same,Purity change,[3]; 80° C.,0.01%
same,Initial purity,[3],99.94%
